# Reference: publication PMC5453931, “Cathelicidin-trypsin inhibitor loop conjugate represents a promising antibiotic candidate with protease stability” (Scientific Reports, 2017)
# Where a SMILES comes first, the peptide text is derived from it.
# How the values were obtained:
# trypsin or proteinase K = conditions: peptide:protease 300/1 mol/mol, 30 min, 37 °C, then 1 × MIC 2 h with E. coli, S. aureus, C. albicans; colony counting; Fig. 3E
# S. Aureus 08032615 = assay: microbe, parasite or virus in culture; format: cell-based; conditions: 08032615, 18 h
# Summary of the method: (§1)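 MH broth, 2-fold serial peptide dilution; inoculum 10^6 CFU/mL before equal-volume mixing. 37 °C, 18 h, gentle shaking, A595 read. MIC = no-growth endpoint, mean of 3 independent runs.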
# K. Pneumoniae 08031012 = assay: microbe, parasite or virus in culture; format: cell-based; conditions: 08031012, 18 h
# Summary of the method: as §1
# E. Coli 08032823 = assay: microbe, parasite or virus in culture; format: cell-based; conditions: 08032823, 18 h
# Summary of the method: as §1
# Proteus mirabilis 1376 = assay: microbe, parasite or virus in culture; format: cell-based; conditions: 1376, 18 h
# Summary of the method: as §1
# [1] = test system: Escherichia coli ATCC25922; assay: microbe, parasite or virus in culture; format: cell-based; conditions: ATCC25922, 18 h
# Summary of the method: as §1
# [2] = test system: Enterococcus faecium 08052315; assay: microbe, parasite or virus in culture; format: cell-based; conditions: 08052315, 18 h
# Summary of the method: as §1
# Vibrio harveyi = assay: microbe, parasite or virus in culture; format: cell-based; conditions: 18 h
# Summary of the method: as §1
# [3] = test system: Candida albicans 08030102; assay: microbe, parasite or virus in culture; format: cell-based; conditions: 08030102, 18 h
# Summary of the method: as §1
# [4] = test system: Bacillus subtilis 08042313; assay: microbe, parasite or virus in culture; format: cell-based; conditions: 08042313, 18 h
# Summary of the method: as §1
# [5] = test system: Nocardia asteroides 08052412; assay: microbe, parasite or virus in culture; format: cell-based; conditions: 18 h
# Summary of the method: as §1
# Aeromonas veronii = assay: microbe, parasite or virus in culture; format: cell-based; conditions: 18 h
# Summary of the method: as §1
# S. Aureus 08032810 = assay: microbe, parasite or virus in culture; format: cell-based; conditions: 08032810, 18 h
# Summary of the method: as §1
# [6] = test system: Shigella dysenteriae 0804203; assay: microbe, parasite or virus in culture; format: cell-based; conditions: Gram-negative; two-fold broth microdilution, MH broth, 37 °C, 18 h; mean of three independent experiments in duplicates
# Summary of the method: as §1
# S. Aureus 08032706 = assay: microbe, parasite or virus in culture; format: cell-based; conditions: 08032706, 18 h
# Summary of the method: as §1
# P. Aeruginosa 08021015 = assay: microbe, parasite or virus in culture; format: cell-based; conditions: 08021015, 18 h
# Summary of the method: as §1
# S. Maltophilia 090223 = assay: microbe, parasite or virus in culture; format: cell-based; conditions: 090223, 18 h
# Summary of the method: as §1
# K. Pneumoniae 08040202 = assay: microbe, parasite or virus in culture; format: cell-based; conditions: 08040202, 18 h
# Summary of the method: as §1
# P. aeruginosa = format: cell-based; conditions: 18 h
# Experimental: (§2) A two-fold broth microdilution method described in our previous paper was used to determine the antimicrobial activities of parental and hybrid peptides. More than 30 strains including Gram-negative bacteria, Gram-positive bacteria and fungi were used in the current assay, in which the standard strains were stored in our lab and the clinical strains were collected from local hospitals. Briefly, bacteria were incubated in Mueller-Hinton broth (MH broth) at 37 °C to exponential phase and diluted to 10^6 CFU/mL. A serial dilution of peptide sample were prepared in 96-well microtiter plates (50 μL) and mixed with equal volume of microbial inoculums (50 μL). The plate was slowly shaken in the microbial incubator, and measured at A595 after incubation at 37 °C for 18 h. The minimal concentrations at which no microbial growth occurred were recorded as MIC (minimal inhibitory concentration) values. The traditional antibiotic ampicillin was used as positive control. The results are shown in an average of the MICs obtained from three independent experiments.
# S. dysenteria = format: cell-based; conditions: two-fold broth microdilution, MH broth, 37 °C, 18 h, A595; mean of three independent experiments in duplicate
# Experimental: as §2
# C. albican = format: cell-based; conditions: 18 h
# Experimental: as §2
# E. coli = format: cell-based; conditions: 18 h
# Experimental: as §2
# P. mirabilis = format: cell-based; conditions: 18 h
# Experimental: as §2
# E. coli 08040726 = format: cell-based; conditions: 08040726, 18 h
# Experimental: as §2
# S. aureus = format: cell-based; conditions: 18 h
# Experimental: as §2
# B. subtilis = format: cell-based; conditions: 18 h
# Experimental: as §2
# [7] = 20% fresh human serum, 37 °C, colonies surviving 1 × MIC, Fig. 3B
# trypsin = assay: Protease stability, RP-HPLC analysis of degradation; format: in vitro ADME; conditions: trypsin, 300:1, 0.1 M NH4HCO3 pH 8.2, 37 °C, 6 h; RP-HPLC; Fig. 4
# Experimental: To further examine the stability of TIH3F incubated with enzymes (trypsin and protease K) over time, the LC analysis of peptide degradation over a series of time spans (0, 6, 12, 24 h) was performed. TIH3F and protease solution were prepared in 0.1 M NH4HCO3 buffer (pH 8.2) to final molar ratio of 300:1, and incubated at 37 °C for 6, 12, and 24 h, respectively. Then 150 μL aliquots were taken at given time intervals, diluted with 150 μL of water/acetonitrile (60/40 v/v) containing 2% TFA, and analyzed by RP-HPLC (Thermo Scientific Syncronis C18 column, 250 mm × 4.6 mm, 5 μm), eluted with acetonitrile/water (containing 0.1% TFA) mixture of linear gradient concentration.
# [8] = test system: C. albicans biofilm formation; assay: Biofilm inhibition assay (XTT); format: cell-based; conditions: Candida albicans, 4 μg/mL, 36 h, 35 °C, Fig. 2A
# Experimental: TIH3F that has the best antifungal activity among the four peptides was chosen to examine the effect on the C. albicans biofilm formation and the established biofilm using previously described method with minor modifications. In the biofilm inhibition assay, after the incubation at 35 °C, C. Albicans was diluted to 1 × 10^6 CFU/mL in RPMI-1640 medium. Then 2 mL culture was added to each well of 6-well plates with coverslips at the bottom, and incubated at 35 °C in a humid chamber for 3 h. Non-adherent cells were then washed away by PBS, and series concentrations of TIH3F (0, 1, 2, 4 μg/mL) were added into the plate, with amphotericin B as control. The formation of the biofilm was determined by the XTT Cell Proliferation and Cytotoxicity Kit (KeyGEN BioTECH, Nanjing, China) after 36-h incubation. In the biofilm disruption assay, the biofilm was preformed as described above but with a longer incubation time up to 72 h. Then TIH3F and amphotericin B of series concentrations (0, 2.5, 5, 10, 25, 50 μg/mL) was added after non-adherent cells were washed out. The measurement of remaining biofilm was then determined. […] After washing with PBS, the plate was immediately photographed with fluorescence microscope.
# [9] = test system: established C. albicans biofilm; assay: Biofilm disruption assay, established biofilm (XTT, PI/SYBR Green I); format: cell-based; conditions: 5 μg/mL, biofilm preformed 72 h, XTT metabolic activity; Fig. 2B
# Experimental: TIH3F that has the best antifungal activity among the four peptides was chosen to examine the effect on the C. albicans biofilm formation and the established biofilm using previously described method with minor modifications. In the biofilm inhibition assay, after the incubation at 35 °C, C. Albicans was diluted to 1 × 10^6 CFU/mL in RPMI-1640 medium. Then 2 mL culture was added to each well of 6-well plates with coverslips at the bottom, and incubated at 35 °C in a humid chamber for 3 h. Non-adherent cells were then washed away by PBS, and series concentrations of TIH3F (0, 1, 2, 4 μg/mL) were added into the plate, with amphotericin B as control. The formation of the biofilm was determined by the XTT Cell Proliferation and Cytotoxicity Kit (KeyGEN BioTECH, Nanjing, China) after 36-h incubation. In the biofilm disruption assay, the biofilm was preformed as described above but with a longer incubation time up to 72 h. Then TIH3F and amphotericin B of series concentrations (0, 2.5, 5, 10, 25, 50 μg/mL) was added after non-adherent cells were washed out. The measurement of remaining biofilm was then determined. In order to further confirm the antifungal effect of TIH3F against C. albicans encased in biofilms, the established biofilm was treated with TIH3F (0, 5, 50 μg/mL), washed three times with PBS, and finally stained with 1 mL 1000-fold diluted PI/SYBR Green I at 30 °C in the dark for 20 min. After washing with PBS, the plate was immediately photographed with fluorescence microscope.
compound,measurement,setting,value
CC(C)C[C@H](NC(=O)[C@H](CCCNC(=N)N)NC(=O)[C@H](CCCCN)NC(=O)[C@H](Cc1ccccc1)NC(=O)[C@H](Cc1ccccc1)NC(=O)[C@@H](N)CCCCN)C(=O)N[C@@H](CC(C)C)C(=O)N[C@@H](CCCCN)C(=O)N[C@@H](CO)C(=O)N[C@H](C(=O)N[C@@H](CCCNC(=N)N)C(=O)N[C@@H](CCCNC(=N)N)C(=O)N[C@@H](C)C(=O)N[C@H](C(=O)N[C@@H](CCCCN)C(=O)N[C@@H](CCCCN)C(=O)N[C@@H](Cc1ccccc1)C(N)=O)C(C)C)C(C)C [Hc3] (H-KFFKRLLKSVRRAVKKF-NH2),antimicrobial activity after treatment with trypsin or proteinase K,trypsin or proteinase K,almost lost its bactericidal ability
same,MIC S. Aureus 08032615,S. Aureus 08032615,9.38 µg/mL
same,MIC K. Pneumoniae 08031012,K. Pneumoniae 08031012,75 µg/mL
same,MIC E. Coli 08032823,E. Coli 08032823,9.38 µg/mL
same,MIC Proteus mirabilis 1376,Proteus mirabilis 1376,4.68 µg/mL
same,MIC Escherichia coli ATCC25922,[1],18.75 µg/mL
same,MIC Enterococcus faecium 08052315,[2],9.38 µg/mL
same,MIC Vibrio harveyi,Vibrio harveyi,18.75 µg/mL
same,MIC Candida albicans 08030102,[3],9.38 µg/mL
same,MIC Bacillus subtilis 08042313,[4],9.38 µg/mL
same,MIC Nocardia asteroides 08052412,[5],4.69 µg/mL
same,MIC Aeromonas veronii,Aeromonas veronii,9.38 µg/mL
same,MIC S. Aureus 08032810,S. Aureus 08032810,75 µg/mL
same,MIC Shigella dysenteriae 0804203,[6],2.34 µg/mL
same,MIC S. Aureus 08032706,S. Aureus 08032706,75 µg/mL
same,MIC P. Aeruginosa 08021015,P. Aeruginosa 08021015,9.38 µg/mL
same,MIC S. Maltophilia 090223,S. Maltophilia 090223,9.38 µg/mL
same,MIC K. Pneumoniae 08040202,K. Pneumoniae 08040202,75 µg/mL
same,MIC P. aeruginosa,P. aeruginosa,9.38 µg/mL
same,MIC S. dysenteria,S. dysenteria,2.34 µg/mL
same,MIC C. albican,C. albican,9.38 µg/mL
same,MIC E. coli,E. coli,18.75 µg/mL
same,MIC P. mirabilis,P. mirabilis,4.68 µg/mL
same,MIC E. coli 08040726,E. coli 08040726,37.5 µg/mL
same,MIC S. aureus,S. aureus,9.38 µg/mL
same,MIC B. subtilis,B. subtilis,9.38 µg/mL
same,bactericidal ability after incubation with human serum,[7]; 3 h,dropped more than half
same,kill (%) after incubation with human serum,[7]; 6 h,almost diminished
same,kill (%) / antimicrobial activity kept after incubation with human serum,[7]; 36 h,lost its bacterial inhibitory activity
same,degradation by trypsin,trypsin,the majority of which was rapidly digested
"C[C@@H]1[C@H](O)[C@@H](C)/C=C/C=C/C=C/C=C/C=C/C=C/C=C/[C@H](O[C@@H]2O[C@H](C)[C@@H](O)[C@H](N)[C@@H]2O)C[C@@H]2O[C@](O)(C[C@@H](O)C[C@@H](O)[C@H](O)CC[C@@H](O)C[C@@H](O)CC(=O)O[C@H]1C)C[C@H](O)[C@H]2C(=O)O [amphotericin B, reference compound]",inhibition at 4 µg/mL,[8],25%
same,damage of established C. albicans biofilm,[9],remained intact
